Assay results from article PMC6481345, “A novel anti-melanoma SRC-family kinase inhibitor” (Oncotarget, 2019).

Tests used:
[1] = tested on: panel of 36 recombinant kinases; assay: Radioisotope filter assay, panel of recombinant kinases (summary); format: biochemical; conditions: SRC-family kinases YES1, BLK, LCK, FGR, HCK and FYN; read-out: IC50, range over kinases
Procedure: (§1) The effect of SAB298 on a panel of 36 recombinant kinases, was screed with the radioisotope filter binding assay employing 10 concentrations of the compound with 10 µM ATP (Reaction Biology Corporation, Malvern, PA). In addition, we tested the endogenous kinome response to SAB298 (0.05 µM, 0.5 µM and 5 µM) in lysates from two melanoma cell lines (YUSIV and YUSIK) employing the KiNativ® platform (ActivX Biosciences Inc., La Jolla, CA). KiNativ® is a robust, high performance mass spectrometry (LC-MS^2) assay that uses biotinylated probes to measure relevant changes in the affinity to the ATP-binding sites of 205 native kinases as a function of cellular context. We also validated SAB298 effect on the activity of SRC-family kinases by probing for phosphorylated Y416, the marker of activated SFKs, with anti-IEDNEpYTAR antibodies (also known as Y419, #2101, Cell Signaling Technology, Beverly, MA). In some cases the cells were incubated overnight with 20 µM proteasome inhibitor MG-132 (CAS 133407-82-6, Millipore Sigma, Burlington, MA) to rescue degradation.
Supplemntary Table 3: Radioisotope filter activity assay Tests for SAB298 target protein
*These are results from 10 point dose response test employed with 10 µM ATP.
Supplementary Table 4: Lentiviral vectors MISSION pLKO.1 puromycin bearing SFK shRNA used to test the effect of
specific SFK downregulation on cell proliferation […]

[2] = target: YES1 (Homo sapiens, UniProt P07947); assay: KiNativ in situ kinase profiling in melanoma cell lysates; format: binding; set-up: the endogenous kinome response to SAB298 (0.05 µM, 0.5 µM and 5 µM) in lysates from two melanoma cell lines; host or cells: YUSIV melanoma cell lysate (not present in YUSIK); conditions: YES1 in YUSIV lysate; 3-point dose response
Sequence of YES1 (P07947 whole entry): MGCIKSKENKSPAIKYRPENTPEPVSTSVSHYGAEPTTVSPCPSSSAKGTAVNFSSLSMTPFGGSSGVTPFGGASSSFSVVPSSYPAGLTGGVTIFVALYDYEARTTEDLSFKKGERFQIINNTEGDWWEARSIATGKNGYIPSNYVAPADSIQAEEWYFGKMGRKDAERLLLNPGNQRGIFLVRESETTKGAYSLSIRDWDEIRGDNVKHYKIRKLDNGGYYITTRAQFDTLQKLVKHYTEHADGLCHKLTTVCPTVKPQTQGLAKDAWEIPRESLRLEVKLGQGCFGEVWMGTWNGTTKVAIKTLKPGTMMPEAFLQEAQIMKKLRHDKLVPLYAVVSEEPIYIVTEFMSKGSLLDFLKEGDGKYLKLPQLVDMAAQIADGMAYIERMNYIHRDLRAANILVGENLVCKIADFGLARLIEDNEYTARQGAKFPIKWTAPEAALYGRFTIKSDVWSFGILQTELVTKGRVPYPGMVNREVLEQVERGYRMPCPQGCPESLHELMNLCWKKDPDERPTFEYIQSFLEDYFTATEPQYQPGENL
Procedure: as §1

[3] = tested on: YUMAC melanoma cells; assay: CellTiter-Glo Luminescent Cell Viability Assay; format: cell-based; conditions: Homo sapiens, BRAF V600K, 72 hrs
Procedure: (§2) The melanoma cells were grown in OptiMEM (Invitrogen, Carlsbad, CA) supplemented with 5% fetal calf serum and antibiotics. The normal human melanocytes (NBMEL) were grown in medium supplemented with bFGF, IBMX and dbcAMP [32]. Most of the Yale melanoma cell lines were characterized by next-generation sequencing (Supplementary Table 2).
(§3) Cell proliferation was measured with the CellTiter-Glo® Luminescent Cell Viability Assay (Promega Corporation, Madison, WI). Melanoma cells were seeded in 96-well plates in triplicate or quadruplet wells, with increasing concentrations of kinase inhibitors for 72 hrs. The rate of proliferation was also tested after knockdown of different SRC-family kinases (SFK) with hairpin lentivirus shRNA as indicated. […] The statistical significance of synergism of response to drug combinations was evaluated by following Chou and Talalay algorithm. See also details in Supplementary Material.

[4] = tested on: YUNIS melanoma cells; assay: CellTiter-Glo Luminescent Cell Viability Assay; format: cell-based; conditions: Homo sapiens, HRAS Q61K, 72 hrs
Procedure: as §2, §3

[5] = tested on: YULIPPY melanoma cells; assay: CellTiter-Glo Luminescent Cell Viability Assay; format: cell-based; conditions: Homo sapiens, BRAF V600E, 72 hrs
Procedure: as §2, §3

[6] = tested on: YUCRATE melanoma cells; assay: CellTiter-Glo Luminescent Cell Viability Assay; format: cell-based; conditions: Homo sapiens, BRAF G469A, 72 hrs
Procedure: as §2, §3

[7] = tested on: YUROL melanoma cells; assay: CellTiter-Glo Luminescent Cell Viability Assay; format: cell-based; conditions: Homo sapiens, WT/WT, 72 hrs
Procedure: as §2, §3

[8] = tested on: YUZEST melanoma cells; assay: CellTiter-Glo Luminescent Cell Viability Assay; format: cell-based; conditions: Homo sapiens, BRAF V600E, 72 hrs
Procedure: as §2, §3

[9] = tested on: YUGEN8 melanoma cells; assay: CellTiter-Glo Luminescent Cell Viability Assay; format: cell-based; conditions: Homo sapiens, YUGEN8, BRAF V600E, 72 hrs
Procedure: as §2, §3

[10] = tested on: YUKSI melanoma cells; assay: CellTiter-Glo Luminescent Cell Viability Assay; format: cell-based; conditions: Homo sapiens, BRAF V600K, 72 hrs
Procedure: as §2, §3

[11] = tested on: SK-MEL-28 melanoma cells; assay: CellTiter-Glo Luminescent Cell Viability Assay; format: cell-based; conditions: Homo sapiens, SK-MEL-28, BRAF V600E, 72 hrs
Procedure: as §2, §3

[12] = tested on: YUGANK melanoma cells; assay: CellTiter-Glo Luminescent Cell Viability Assay; format: cell-based; conditions: Homo sapiens, NRAS Q61K, 72 hrs
Procedure: as §2, §3

[13] = tested on: YUCHIME melanoma cells; assay: CellTiter-Glo Luminescent Cell Viability Assay; format: cell-based; conditions: Homo sapiens, BRAF V600K/M, 72 hrs
Procedure: as §2, §3

[14] = tested on: YUDOSO melanoma cells; assay: CellTiter-Glo Luminescent Cell Viability Assay; format: cell-based; conditions: Homo sapiens, NRAS Q61K, 72 hrs
Procedure: as §2, §3

[15] = tested on: YUHIMO melanoma cells; assay: CellTiter-Glo Luminescent Cell Viability Assay; format: cell-based; conditions: Homo sapiens, PDE4DIP-BRAF fusion, 72 hrs
Procedure: as §2, §3

[16] = tested on: YUTICA melanoma cells; assay: CellTiter-Glo Luminescent Cell Viability Assay; format: cell-based; conditions: Homo sapiens, NRAS Q61R, 72 hrs
Procedure: as §2, §3

[17] = tested on: YUFURL melanoma cells; assay: CellTiter-Glo Luminescent Cell Viability Assay; format: cell-based; conditions: Homo sapiens, NRAS G12D, 72 hrs
Procedure: as §2, §3

[18] = tested on: YUPEPO melanoma cells; assay: CellTiter-Glo Luminescent Cell Viability Assay; format: cell-based; conditions: Homo sapiens, WT/WT, GNA11 Q209L, 72 hrs
Procedure: as §2, §3

[19] = tested on: YUHEF melanoma cells; assay: CellTiter-Glo Luminescent Cell Viability Assay; format: cell-based; conditions: Homo sapiens, WT/WT, 72 hrs
Procedure: as §2, §3

[20] = tested on: SK-MEL-23 melanoma cells; assay: CellTiter-Glo Luminescent Cell Viability Assay; format: cell-based; conditions: Homo sapiens, SK-MEL-23, WT/WT, 72 hrs
Procedure: as §2, §3

[21] = tested on: YUTOGS melanoma cells; assay: CellTiter-Glo Luminescent Cell Viability Assay; format: cell-based; conditions: Homo sapiens, WT/WT, 72 hrs
Procedure: as §2, §3

[22] = tested on: YURIF melanoma cells; assay: CellTiter-Glo Luminescent Cell Viability Assay; format: cell-based; conditions: Homo sapiens, BRAF V600K, 72 hrs
Procedure: as §2, §3

## Nc1ncnc2c1c(-c1ccc(Oc3ccccc3)cc1)nn2C[C@@H]1SSC[C@@H]1O [SAB298, (3S, 4S)-3-((4-amino-3-(4-phenoxyphenyl)-1H-pyrazolo[3,4-d]pyrimidin-1-yl)methyl)-1,2-dithiolan-4-ol]
[1]
  IC50: 0.7 to 21.7 nM
[2]
  IC50: < 10 nM
[3]
  IC50: 894 nM
[4]
  IC50: 2580 nM
[5]
  IC50: 111 nM
[6]
  IC50: 282 nM
[7]
  IC50: 717 nM
[8]
  IC50: 263 nM
[9]
  IC50: 115 nM
[10]
  IC50: 582 nM
[11]
  IC50: 812 nM
[12]
  IC50: 456 nM
[13]
  IC50: 2480 nM
[14]
  IC50: 2360 nM
[15]
  IC50: 237 nM
[16]
  IC50: 766 nM
[17]
  IC50: 371 nM
[18]
  IC50: 264 nM
[19]
  IC50: 257 nM
[20]
  IC50: 162 nM
[21]
  IC50: 347 nM
[22]
  IC50: 500 nM
